Source: US9308182B2 (TEVA PHARMACEUTICAL INDUSTRIES, LTD., priority 2012, dated 2016)
Like-named read-outs stand apart in the source and are kept apart here.

Key:
[1] = target: MAO-A (Rattus norvegicus, UniProt P21396); test: in vivo; conditions: rat, sc
Source text: (§1) ALZET® osmotic minipumps are described in Perkins L, Peer C, and Murphy-Hackley P. “Chapter 21: The use of mini-osmotic pumps in continuous infusion studies” in Handbook of Pre-Clinical Continuous Intravenous Infusion, (Smith & Healing, eds., Taylor and Francis, 2000), the contents of which are incorporated herein by reference.
(§2) The osmotic minipumps were inserted subcutaneously with a single surgical procedure: after clipping the fur from the dorsal area and cleaning the skin with antiseptic skin preparation, about 1 cm long incision was made on the dorsum of the animal, midway between both scappulae. The pump was placed along the axis of the body to one side of the backbone. The incision was positioned about 1-2 cm caudal to the estimated caudal end of the minipump when it is in place.
(§3) After two weeks of treatment the animals were sacrificed. From each rat, brain (half) and a part of liver were dissected and frozen. The intestine was excised about ½ cm below the stomach about 1-2 cm long, washed with sucrose 0.32 Molar and frozen at −70° C.
(§4) Tissue homogenates were pre incubated (37° C.) in the presence of clorgyline or deprenyl to inhibit the activity of MAO-A or MAO-B respectively. For MAO-B determination, samples were incubated for 20 minutes with C^14 PEA 10 μM and for MAO-A determination samples were incubated 30 minutes with C^14 −5HT 100 μM as substrate Termination of the reaction was done by acidification. The labeled metabolites were extracted into toluene:ethyl acetate, and counted in a β counter.

[2] = target: MAO-B (Rattus norvegicus, UniProt P19643); test: in vivo; conditions: for MAO-B activity, brain / MAO-B activity, intestine / MAO-B activity, liver: two weeks; for inhibition at 0.02 mg/kg/day / inhibition at 0.4 mg/kg/day / inhibition at 0.8 mg/kg/day / inhibition at 0.05 mg/kg/day / inhibition at 0.1 mg/kg/day / inhibition at 0.2 mg/kg/day: rat
Sequence of MAO-B (P19643 whole entry): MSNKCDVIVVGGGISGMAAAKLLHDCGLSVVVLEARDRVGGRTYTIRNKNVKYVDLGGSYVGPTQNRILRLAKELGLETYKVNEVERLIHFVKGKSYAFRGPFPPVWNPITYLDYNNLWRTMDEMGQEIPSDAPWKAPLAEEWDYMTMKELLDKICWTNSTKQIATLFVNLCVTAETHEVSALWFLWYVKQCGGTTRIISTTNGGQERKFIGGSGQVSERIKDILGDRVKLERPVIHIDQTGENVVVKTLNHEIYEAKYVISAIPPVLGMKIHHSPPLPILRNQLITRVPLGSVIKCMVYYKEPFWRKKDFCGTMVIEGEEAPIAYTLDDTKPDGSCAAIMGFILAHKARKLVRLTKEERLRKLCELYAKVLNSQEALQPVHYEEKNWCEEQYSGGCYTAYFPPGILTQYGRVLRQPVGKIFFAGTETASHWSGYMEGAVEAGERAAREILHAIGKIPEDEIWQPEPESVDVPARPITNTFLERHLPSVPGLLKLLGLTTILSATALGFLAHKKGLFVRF
Source text: as §1, §2, §3, §4

[3] = rats
Source text: as §1
ALZET® pumps groups were weighed on the first and last day of the study. The oral administered groups were weighed on the first day and also on day 6 and 13 of the study.

[4] = read-out: Percent of MAO-A inhibition, intestine
[5] = read-out: Percent of MAO-A inhibition, liver
[6] = po, read-out: Percent of MAO-B inhibition, brain
[7] = po, read-out: Percent of MAO-B inhibition, intestine
[8] = po, read-out: Percent of MAO-B inhibition, liver
[9] = sc, read-out: Percent of MAO-B inhibition, brain
[10] = sc, read-out: Percent of MAO-B inhibition, intestine
[11] = sc, read-out: Percent of MAO-B inhibition, liver

Sequence of MAO-A (P21396 whole entry, the tested form may be a part): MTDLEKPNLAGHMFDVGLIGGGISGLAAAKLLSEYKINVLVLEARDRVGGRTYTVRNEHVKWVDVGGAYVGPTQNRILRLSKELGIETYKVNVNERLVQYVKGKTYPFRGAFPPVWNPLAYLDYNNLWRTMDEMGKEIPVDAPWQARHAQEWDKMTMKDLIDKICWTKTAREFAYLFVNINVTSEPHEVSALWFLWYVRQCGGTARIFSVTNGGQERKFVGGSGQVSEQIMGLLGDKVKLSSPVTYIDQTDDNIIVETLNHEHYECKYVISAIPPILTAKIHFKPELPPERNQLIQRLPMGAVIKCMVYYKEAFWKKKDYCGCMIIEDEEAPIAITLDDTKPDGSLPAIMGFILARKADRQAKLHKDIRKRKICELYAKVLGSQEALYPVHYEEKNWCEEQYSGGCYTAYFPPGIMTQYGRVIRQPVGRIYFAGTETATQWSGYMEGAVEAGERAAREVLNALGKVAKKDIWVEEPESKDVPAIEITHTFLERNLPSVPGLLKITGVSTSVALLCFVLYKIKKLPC

- inhibition at 0.4 mg/kg/day [1, 4]: 34%
- inhibition at 0.8 mg/kg/day [1, 4]: 42%
- inhibition at 0.02 mg/kg/day [1, 5]: 1%
- inhibition at 0.05 mg/kg/day [1, 5]: 1%
- inhibition at 0.1 mg/kg/day [1, 5]: 13%
- inhibition at 0.2 mg/kg/day [1, 5]: 71%
- inhibition at 0.4 mg/kg/day [1, 5]: 99%
- inhibition at 0.8 mg/kg/day [1, 5]: 100%
- MAOB inhibition in the brain, ALZET pumps versus oral group ([2]; brain): No change
- MAO-B activity, brain ([2]; brain, oral, 0.02 mg/kg/day (salt)): 1586 dpm
- MAO-B activity, brain ([2]; brain, oral, 0.05 mg/kg/day (salt)): 494 dpm
- MAO-B activity, brain ([2]; brain, oral, 0.1 mg/kg/day (salt)): 181 dpm
- MAO-B activity, brain ([2]; brain, oral, 0.2 mg/kg/day (salt)): 69 dpm
- MAO-B activity, brain ([2]; brain, oral, 0.4 mg/kg/day (salt)): 34 dpm
- MAO-B activity, brain ([2]; brain, oral, 0.8 mg/kg/day (salt)): 9 dpm
- MAO-B activity, brain ([2]; brain, sc ALZET pumps, 0.02 mg/kg/day (salt)): 1229 dpm
- MAO-B activity, brain ([2]; brain, sc ALZET pumps, 0.05 mg/kg/day (salt)): 346 dpm
- MAO-B activity, brain ([2]; brain, sc ALZET pumps, 0.1 mg/kg/day (salt)): 198 dpm
- MAO-B activity, brain ([2]; brain, sc ALZET pumps, 0.2 mg/kg/day (salt)): 75 dpm
- MAO-B activity, brain ([2]; brain, sc ALZET pumps, 0.4 mg/kg/day (salt)): 38 dpm
- MAOB inhibition in the intestine and liver, ALZET pumps compared with oral administration ([2]; intestine and liver, daily dose of up to 0.1 mg/kg): lower
- maximal MAO-B inhibition in the intestine ([2]; intestine, both routes (oral, ALZET pumps)): about 85%
- MAO-B activity, intestine ([2]; intestine, oral, 0.02 mg/kg/day (salt)): 3633 dpm
- MAO-B activity, intestine ([2]; intestine, oral, 0.05 mg/kg/day (salt)): 3115 dpm
- MAO-B activity, intestine ([2]; intestine, oral, 0.1 mg/kg/day (salt)): 2493 dpm
- MAO-B activity, intestine ([2]; intestine, oral, 0.2 mg/kg/day (salt)): 2424 dpm
- MAO-B activity, intestine ([2]; intestine, oral, 0.4 mg/kg/day (salt)): 2108 dpm
- MAO-B activity, intestine ([2]; intestine, oral, 0.8 mg/kg/day (salt)): 2105 dpm
- MAO-B activity, intestine ([2]; intestine, sc ALZET pumps, 0.02 mg/kg/day (salt)): 8265 dpm
- MAO-B activity, intestine ([2]; intestine, sc ALZET pumps, 0.05 mg/kg/day (salt)): 4346 dpm
- MAO-B activity, intestine ([2]; intestine, sc ALZET pumps, 0.1 mg/kg/day (salt)): 3225 dpm
- MAO-B activity, intestine ([2]; intestine, sc ALZET pumps, 0.2 mg/kg/day (salt)): 2391 dpm
- MAO-B activity, intestine ([2]; intestine, sc ALZET pumps, 0.4 mg/kg/day (salt)): 1852 dpm
- MAO-B activity, intestine ([2]; intestine, sc ALZET pumps, 0.8 mg/kg/day (salt)): 1879 dpm
- MAO-B activity, liver ([2]; oral, 0.02 mg/kg/day (salt)): 1127 dpm
- MAO-B activity, liver ([2]; oral, 0.05 mg/kg/day (salt)): 511 dpm
- MAO-B activity, liver ([2]; oral, 0.1 mg/kg/day (salt)): 224 dpm
- MAO-B activity, liver ([2]; oral, 0.2 mg/kg/day (salt)): 136 dpm
- MAO-B activity, liver ([2]; oral, 0.4 mg/kg/day (salt)): 38 dpm
- MAO-B activity, liver ([2]; sc ALZET pumps, 0.02 mg/kg/day (salt)): 1974 dpm
- MAO-B activity, liver ([2]; sc ALZET pumps, 0.05 mg/kg/day (salt)): 912 dpm
- MAO-B activity, liver ([2]; sc ALZET pumps, 0.1 mg/kg/day (salt)): 486 dpm
- MAO-B activity, liver ([2]; sc ALZET pumps, 0.2 mg/kg/day (salt)): 312 dpm
- MAO-B activity, liver ([2]; sc ALZET pumps, 0.4 mg/kg/day (salt)): 181 dpm
- MAO-B activity, liver ([2]; sc ALZET pumps, 0.8 mg/kg/day (salt)): 166 dpm
- inhibition at 0.02 mg/kg/day [2, 6]: 83%
- inhibition at 0.4 mg/kg/day [2, 6]: 100%
- inhibition at 0.8 mg/kg/day [2, 6]: 100%
- inhibition at 0.02 mg/kg/day [2, 7]: 74%
- inhibition at 0.05 mg/kg/day [2, 7]: 78%
- inhibition at 0.1 mg/kg/day [2, 7]: 82%
- inhibition at 0.2 mg/kg/day [2, 7]: 83%
- inhibition at 0.4 mg/kg/day [2, 7]: 85%
- inhibition at 0.8 mg/kg/day [2, 7]: 85%
- inhibition at 0.02 mg/kg/day [2, 8]: 83%
- inhibition at 0.05 mg/kg/day [2, 8]: 92%
- inhibition at 0.8 mg/kg/day [2, 8]: 100%
- inhibition at 0.4 mg/kg/day [2, 9]: 100%
- inhibition at 0.8 mg/kg/day [2, 9]: 100%
- inhibition at 0.02 mg/kg/day [2, 10]: 37%
- inhibition at 0.05 mg/kg/day [2, 10]: 67%
- inhibition at 0.1 mg/kg/day [2, 10]: 76%
- inhibition at 0.2 mg/kg/day [2, 10]: 82%
- inhibition at 0.4 mg/kg/day [2, 10]: 86%
- inhibition at 0.8 mg/kg/day [2, 10]: 86%
- inhibition at 0.02 mg/kg/day [2, 11]: 67%
- inhibition at 0.05 mg/kg/day [2, 11]: 85%
- inhibition at 0.1 mg/kg/day [2, 11]: 92%
- weight gain ([3]; 0.8 mg/kg/day delivered by ALZET pumps, first to last day of two-week study): 1.3%
- weight gain ([3]; all oral and ALZET pump groups except 0.8 mg/kg/day by ALZET pumps): 6-9%
Structure (SMILES): C#CCN[C@@H]1CCc2ccccc21 [rasagiline, R(+)-N-propargyl-l-aminoindan]
